Patent US8835510B2, “Methods and compositions for treating conditions mediated by oxidative stress or electrophilic environmental toxins” (priority 2010, dated 2014)
“And” between values parts separate entries of the source, which are not always exact repeats. Equal entries are not always repeated. “Also recorded” adds a separate entry of the source.

Key:
[1] = tested on: acrolein-exposed striatal synaptosomes; experiment: Protection against acrolein-induced thiol loss in striatal synaptosomes (DTNB); type: cell-based, rat; conditions: for cytoprotection / thiol protection in acrolein-exposed synaptosomes: pH 7.4, test compound 500 μM
Description: Therefore, as an investigation of possible cytoprotection, a determination was made of the relative abilities of the above 1,3-dicarbonyl structural series to prevent thiol loss in acrolein-exposed rat striatal synaptosomes (isolated CNS nerve terminals). Synaptosomes were prepared according to the methods of LoPachin et al.^52 and were exposed (Krebs buffer, pH 7.4, 30° C.×15 mins) to graded concentrations of acrolein (1-1000 μM) alone or in combination with a 1,3-dicarbonyl derivative or control compound (500 μM). […] The respective IC50s and 95% confidence intervals were calculated by the […] (Prism 3.0, GraphPad Software). The selected 1,3-dicarbonyls are carbanion nucleophiles and, therefore, the analyses also included NAC as a representative thiolate-type nucleophile. Studies were conducted to assess the in vitro toxicity of the selected enol derivatives (FIG. 4).
Studies were carried out using isolated brain nerve terminals (striatal synaptosomes) exposed to acrolein as a model of electrophile-induced toxicity, as illustrated in FIG. 5A-5B. Acrolein is a soft electrophile that inhibits protein function by forming adducts with soft nucleophilic cysteine residues and thereby causes synaptosomal toxicity.

[2] = tested on: acrolein-exposed striatal synaptosomes; experiment: Protection against acrolein-induced inhibition of 3H-dopamine transport in striatal synaptosomes; type: cell-based, rat; conditions: for change in acrolein IC50 for inhibition of DA transport: test compound 500 μM, Krebs buffer pH 7.4, 30° C., 15 mins (FIG. 5A)
[3] = pKa and enolate ionization of enol compounds; type: physicochemical; conditions: for fraction in the anionic enolate state: pH 7.4 (neutral / cellular pH)
MN9D cells [4] = experiment: Cell viability (trypan blue) in acrolein-exposed MN9D cultures; conditions: for protection against acrolein-induced cell death (words): pre-incubation 60 minutes, 750 μM each (phloretin 100 μM)
Description: (§1) As a more complex biological model, a determination was made of the relative abilities of the 1,3-dicarbonyls to protect MN9D cells, a dopaminergic cell line, from acrolein- (FIG. 6) or hydrogen peroxide (H2O2)-induced cell death (FIG. 7). Briefly, two days after plating, cells were incubated with AcAc (750 μM) for one hr followed by exposure to graded concentrations of either acrolein (0.50-150 μM×24 hrs) or H2O2 (50-750 μM×24 hrs). Cell viability was determined by trypan blue (0.1%) exclusion. Living cells were counted in a hemocytometer and total cells per dish were calculated.

[5] = Kinetic assay of acrolein-induced N-acetyl cysteine (NAC) sulfhydryl loss (DTNB method); conditions: for rate of sulfhydryl loss (mean rate±SE): NAC + acrolein 150 μM + test compound 50 μM co-incubated, Krebs buffer pH 7.4, 30° C.; for sulfhydryl (NAC) protection, pre-incubation: acrolein pre-incubated with test compound, NAC added one hour later; for ability to slow acrolein-induced NAC thiol loss: co-incubation, test compound 50 μM, pH 7.4 (FIG. 3A)
Excerpt: As an index of cytoprotection, these studies focused on the abilities of 1,3-dicarbonyl compounds to prevent electrophile-induced loss of protein and non-protein sulfhydryl groups. This experimental focus is based on substantial evidence that soft electrophiles, like acrolein, produce toxicity by forming Michael-type adducts with soft nucleophilic thiolate (anionic sulfhydryl) groups on functionally critical proteins^9, 17, 22, 56, 57 (reviewed in^28, 58, 62, 77, 94). […] To test this hypothesis, a determination was made of the ability of AcAc and other structurally related enol analogs to prevent sulfhydryl (nucleophile) adduction by acrolein (electrophile)^56. […] Free sulfhydryl concentrations were determined over time (up to 15 mins) by the DTNB method of LoPachin et al.^52.
Therefore, as a kinetic index of competitive thiol protection by enolate sequestration, the relative in vitro abilities of 1,3-dicarbonyl compounds and phloretin to slow the rate of acrolein-induced sulfhydryl loss were measured.

[6] = Ferrous ion chelation (method of Dairam et al.); conditions: for EC50: read-out: concentration at which 50% Fe^2+ chelation occurs
MN9D cells [7] = experiment: Cell viability (trypan blue) in H2O2-exposed MN9D cultures; conditions: for protection against H2O2-induced cell death: test compound 750 μM (phloretin 100 μM)
Description: as §1
This system represents a more complete model of oxidative stress since the hydroxyl radical formed from intracellular H2O2 during the Fenton reaction, subsequently mediates the generation of toxic aldehyde by-products such as acrolein and 4-hydroxy-2-nonenal (HNE).

CCl4-intoxicated rats = experiment: Protection from carbon tetrachloride-induced hepatotoxicity in rats; type: in vivo, rat; conditions: 2-ACP 200 mg/kg/d by gavage, six daily doses, then CCl4 30 μl ip; plasma 24 hours after
Description: (§2) This study was carried out in accordance with the NIH Guide for Care and Use of Laboratory Animals and approved by the Montefiore Medical Center Animal Care and Use Committee. Adult male rats (Sprague-Dawley, Taconic Farms, Germantown, N.Y., USA) were used in this study. Rats were housed individually in polycarbonate boxes, and drinking water and Purina Rodent Laboratory Chow (Purina Mills, Inc., St. Louis, Mo., USA) were available ad libitum.
(§3) Male rats (200-250 gm) were injected (i.p.) with 2-ACP at three different daily dose-rates: 100, 200 or 300 mg/kg/d×14 days. Rats were observed 3 times per week for signs of developing toxicity; i.e., body weight loss, general appearance, water/food consumption, gait performance and home cage behavior. […] As a model of in vivo oxidative stress, rats (200-250 gm) were administered 30 μl of carbon tetrachloride (CCl4) in corn oil (ip) following six daily doses of 2-ACP (200 mg/kg/d) by gavage. […] These findings indicate that 2-ACP decreased the degree of hepatic cell death caused by CCl4.

Male rats = experiment: 2-ACP toxicity in rats (14 day i.p. dosing); type: in vivo, rat; conditions: i.p. 100, 200 or 300 mg/kg/d×14 days
Description: as §2, §3

Aqueous solubility = type: physicochemical
[8] = Free radical scavenging (DPPH absorbance method of Ak and Gulcin)
Description: The relative abilities of selected 1,3-dicarbonyl compounds to scavenge free radicals were determined using the spectrophotometric method of Ak and Gulcin (2008)^4 that measures changes in the absorbance of the 2,2-diphenyl-1-picrylhydrazyl radical.

[9] = co-incubation with test compound 500 μM

CC1(C)CC(=O)CC(=O)C1 [DMD, 5,5-Dimethyl-1,3-cyclohexanedione]
cytoprotection / thiol protection in acrolein-exposed synaptosomes [1]: powerful cytoprotectant | change in acrolein IC50 for inhibition of DA transport [2]: largest increases in the acrolein IC50 | pKa [3]: 5.3 | fraction in the anionic enolate state [3]: 99% | protection against acrolein-induced cell death (words) (MN9D cells [4]): did not provide protection | protection against acrolein-induced cell death in serum-free medium (MN9D cells [4]): substantial increases in the acrolein LC50 | rate of sulfhydryl loss (mean rate±SE) [5]: −2.4±0.3 nmol SH sec^−1 | sulfhydryl (NAC) protection, pre-incubation [5]: significant thiol protection

C=CC=O [acrolein]
IC50 ([1]; Rattus norvegicus, acrolein alone, 0.001-1 mM, read-out: IC50 of acrolein for loss of synaptosomal sulfhydryl groups): 74 µM | IC50 ([2]; Rattus norvegicus, acrolein alone, 0.001-1 mM, read-out: IC50 of acrolein for decrease in membrane 3H-DA transport): 66 µM | rate of sulfhydryl loss (mean rate±SE) [5]: −78.4±7 nmol SH sec^−1 | rate of acrolein-induced sulfhydryl (NAC) loss (mean rate±95% confidence interval) ([5]; pH 7.4): -78.4 ± 6.2 nmol/s

CC(=O)C(C)C(C)=O [MPD, 3-methyl-2,4-pentanedione]
pKa [3]: 10.8 | ability to slow acrolein-induced NAC thiol loss [5]: minimally protective

CC1(C)OC(=O)CC(=O)O1 [Meld. Acid, 2,2-dimethyl-1,3-dioxane-4,6-dione]
change in acrolein IC50 for inhibition of DA transport [2]: largest increases in the acrolein IC50 | pKa [3]: 4.8 | protection against acrolein-induced cell death (words) (MN9D cells [4]): did not provide protection | protection against acrolein-induced cell death in serum-free medium (MN9D cells [4]): substantial increases in the acrolein LC50 | sulfhydryl (NAC) protection, pre-incubation [5]: significant thiol protection

CC(=O)C1CCCC1=O (centres unmarked) [2-ACP, 2-acetylcyclopentanone]
EC50 [6]: 211 µM | increase in acrolein IC50 for synaptosomal thiol loss [1, 9]: 15 fold | increase in acrolein IC50 for 3H-DA transport inhibition [2, 9]: 15 fold | pKa [3]: 7.8 | fraction in the anionic enolate state [3]: ~50% | concentration dependence of protection against H2O2 (MN9D cells [7]; graded concentrations: 2-ACP 250-750 μM, AcAc 500-1500 μM (range-finding 50-1000 μM)): significant increases in the LC50 of H2O2 | protection against H2O2-induced cell death (MN9D cells [7]): nearly complete protection | reduction of plasma alanine transferase (ALT) relative to toxicant only (CCl4-intoxicated rats): 40% | reduction of plasma aspartate transferase (AST) relative to toxicant only (CCl4-intoxicated rats): 52% | concentration dependence of protection against acrolein (MN9D cells [4]; graded concentrations: 2-ACP 100-750 μM, AcAc 250-1000 μM (range-finding 50-1000 μM)): significant increases in the LC50 | protection against acrolein-induced cell death (words) (MN9D cells [4]): completely prevented cell death | overt signs of toxicity (body weight loss, appearance, water/food consumption, gait, home cage behavior) (Male rats): did not cause overt signs of toxicity | water solubility (Aqueous solubility): water soluble | DPPH scavenging rate, fold slower than curcumin ([8]; relative to curcumin): 30-40 fold | sulfhydryl (NAC) protection, pre-incubation [5]: completely preserved | sulfhydryl (NAC) protection, co-incubation ([5]; all chemicals added simultaneously): complete sulfhydryl protection

CC(=O)CC(=O)C(F)(F)F [TFPD, 1,1,1,-trifluoro-2,4-pentanedione]
cytoprotection / thiol protection in acrolein-exposed synaptosomes [1]: some thiol protection | change in acrolein IC50 for inhibition of DA transport [2]: more modest | fraction in the anionic enolate state [3]: > 99% and 99% | protection against H2O2-induced cytotoxicity (MN9D cells [7]; FIG. 7): 3 fold | protection against H2O2-induced cell death (MN9D cells [7]): modestly effective | protection against acrolein-induced cell death (words) (MN9D cells [4]): significantly increased the acrolein LC50 | increase in acrolein LC50 (MN9D cells [4]; test compound 750 μM pre-incubation): ~7 fold | rate of sulfhydryl loss (mean rate±SE) [5]: −52.1±5 nmol SH sec^−1 | sulfhydryl (NAC) protection, pre-incubation [5]: modestly effective | thiol protection against acrolein at elevated pH ([5]; pH 9.0): none was observed; also recorded: did not increase

O=C(O)CN(CCN(CC(=O)O)CC(=O)O)CC(=O)O [EDTA]
EC50 [6]: 31 µM

COc1cc(/C=C/C(=O)CC(=O)/C=C/c2ccc(O)c(OC)c2)ccc1O [curcumin, reference compound]
pKa [3]: 8 | water solubility (Aqueous solubility): insolubility in aqueous solutions

CCOC(=O)CC(=O)OCC [DEM, diethyl malonate]
cytoprotection / thiol protection in acrolein-exposed synaptosomes [1]: not cytoprotective | change in acrolein IC50 for inhibition of DA transport [2]: Neither DEM nor HD significantly affected | pKa [3]: 12.9 | fraction in the anionic enolate state [3]: < 0.1% | increase in enolate concentration ([3]; pH 9.0 relative to pH 7.4): ~100 fold | protection against H2O2-induced cell death (MN9D cells [7]): ineffective | protection against acrolein-induced cell death (words) (MN9D cells [4]): neither DEM nor HD were effective

O=C1CCC(=O)C1 [CPD, 1,3-cyclopentanedione]
protection against H2O2-induced cell death (MN9D cells [7]): ineffective | protection against acrolein-induced cell death (words) (MN9D cells [4]): completely prevented cell death | sulfhydryl (NAC) protection, pre-incubation [5]: modestly effective

CC(=O)N[C@@H](CS)C(=O)O [NAC, N-acetyl cysteine, reference compound]
Fe^2+ chelating activity [6]: little, if any, Fe^2+ chelating activity | change in acrolein IC50 for inhibition of DA transport [2]: largest increases in the acrolein IC50 | protection against H2O2-induced cell death (MN9D cells [7]): significantly less efficacious; also recorded: less protective | protection against acrolein-induced cell death (words) (MN9D cells [4]): nearly complete protection; also recorded: completely prevented cell death | DPPH radical scavenging [8]: modest free radical scavenging

CC(=O)CCC(C)=O [HD, 2,5-hexanedione, reference compound]
change in acrolein IC50 for inhibition of DA transport [2]: Neither DEM nor HD significantly affected | protection against H2O2-induced cell death (MN9D cells [7]): ineffective | protection against acrolein-induced cell death (words) (MN9D cells [4]): neither DEM nor HD were effective; also recorded: slight increase in LC50 | sulfhydryl (NAC) protection, pre-incubation [5]: did not affect the rate of acrolein-induced thiol loss | ability to slow acrolein-induced NAC thiol loss [5]: not effective
